The results in this text go back to US20130283404A1, “EPIGENETICS IN AUTOIMMUNITY” (The Regents of the University of Michigan, priority 2012, published 2013).

For one test, the target named is T1, PKCθ (Homo sapiens, UniProt Q04759).
T1 construct: Following stimulation, whole cell lysates were obtained; endogenous in cells; host or cells: primary CD4+ T cells from healthy donors
The test is described as follows: PKCθ activation loop phosphorylation by immunoblot in PMA-stimulated CD4+ T cells. To be noted: CD4+ T cells from healthy subjects, increasing ONOO− then PMA. In kind it is cell-based. Background: In western blotting, separated proteins are transferred to a membrane and probed.

For test [1], the target named is T2, PKCδ (Homo sapiens, UniProt Q05655).
T2 construct: Following stimulation, whole cell lysates were obtained; endogenous in cells; host or cells: primary CD4+ T cells from healthy donors or lupus patients
Put plainly: PKCδ nitration: anti-nitrotyrosine immunoprecipitation and immunoblot of CD4+ T cell lysates. The test is classed as cell-based. To be noted: control T cells treated with ONOO−. As to the method: Immunoprecipitations were performed according to the manufacturer's instructions. Lysates from normal or lupus T cells were incubated with the agarose-conjugated anti-nitrotyrosine antibody overnight at 4° C. Following centrifugation an aliquot of the supernatant (containing non-nitrated proteins) and the beads were resuspended in Laemmli sample buffer and boiled for 5 min. Proteins from each fraction were then analyzed in parallel by SDS-PAGE and immunoblot analysis.
Experiments were conducted during development of embodiments of the present invention to determine whether PKCδ is inactivated in T cells from patients with active lupus through nitration, similar to ONOO treated T cells. CD4+ T cells from 6 lupus patients with active disease (SLEDAI≧4) were stimulated with PMA and nitrated proteins immunoprecipitated from the lysates with anti-3NO2-Tyr antibodies. […] Total and T505 phosphorylated PKCδ content were then compared by immunoblotting.
Nitrated and non-nitrated PKCδ were analyzed as the total PKCδ content in the precipitate and supernatant respectively. The levels of total PKCδ (supernatant+immunoprecipitate) were similar in untreated or ONOO^− treated T cells from control donors and lupus patients (FIGS. 5 A and B). […]

The subject of test [2] is ERK. Put plainly: PMA-stimulated ERK phosphorylation by immunoblot in CD4+ T cells. In kind it is cell-based, human. The conditions noted are these: CD4+ T cells from healthy controls, increasing ONOO− then PMA. Here is the method: (§1) CD4+ T cells were suspended in RPMI 1640 supplemented with 10% fetal calf serum, 2 mM glutamine and penicillin/streptomycin then left unstimulated or stimulated with 50 ng/ml PMA for 15 min at 37° C. Treatment with peroxynitrite was performed at the concentrations and time specified in each experiment and before PMA stimulation. Following stimulation, whole cell lysates were obtained and protein content quantified using the BCA Protein Assay (Pierce, Rockford, Ill.).
(§2) Whole cell protein was fractionated by SDS-PAGE, transferred to nitrocellulose membranes (Schleicher and Schuell, Keene, N.H.) then stained with Ponceau S (Sigma) to verify equal protein loading between lanes. After incubation with the kinase specific antibody then the secondary antibody, protein bands were visualized by chemiluminescence (Amersham, Piscataway, N.J.). The bands on X-ray films were scanned and analyzed with ImageQuant 5.2 software (Amersham) for quantification. Where indicated, blots were stripped and re-probed with the corresponding antibody. Values were normalized to β-actin or the corresponding kinase as indicated.
This agrees with our previous results showing that PKCδ T505 phosphorylation is upstream of ERK (Gorelik, 2007; herein incorporated by reference in its entirety) and its impairment decreases ERK pathway signaling.

In another test the test system is PKCα. Put plainly: PKCα activation loop phosphorylation by immunoblot in PMA-stimulated CD4+ T cells. In kind it is cell-based, human. To be noted: CD4+ T cells from healthy subjects, increasing ONOO− then PMA.
A further test deals with 3-nitrotyrosine proteins. Put plainly: 3NO2-tyrosine protein derivative formation by immunoblot in CD4+ T cells. In kind it is cell-based, human. To be noted: CD4+ T cells from a healthy donor, increasing ONOO− then PMA. Here is the method:
as §1, §2
Experiments were conducted during development of embodiments of the present invention to confirm the effect of ONOO^− by measuring 3NO2-tyrosine protein derivative formation. CD4+ T cells from a healthy donor were treated with increasing ONOO— concentrations then stimulated with PMA. […]

For test [3], the target named is T2, PKCδ. Put plainly: PKCδ phosphorylation (p-T505, p-Y311) by immunoblot in PMA-stimulated CD4+ T cells. The test is classed as cell-based. As to the method:
Peripheral blood mononuclear cells were isolated from healthy donors or SLE patients by Ficoll-Hypaque density gradient centrifugation. CD4+ T cells were then purified by negative selection using magnetic beads (CD4+ T cell isolation kit; Miltenyi Biotec, Auburn, Calif.) as previously reported (Gorelik, 2007; herein incorporated by reference in its entirety).
as §1, §2
Experiments were performed during development of embodiments of the present invention to determine if ONOO^− causes the PKCδ T^505 phosphorylation defect observed in lupus T cells. CD4+ T cells from healthy subjects were treated with increasing concentrations of ONOO^− then stimulated with PMA.
The phosphorylation of Y^311 in the PKCδ molecule was also examined, because this amino acid is phosphorylated in cells undergoing oxidative stress (Steinberg, 2004; Kikkawa, 2002; herein incorporated by reference in their entireties). […] It is important to note that p-Y^311 is almost undetectable in resting CD4+ T cells (not shown) similar to p-T^505. […] While PMA promotes phosphorylation on T^505, Y^311 is almost insensitive. In contrast, ONOO^− increases Y311 phosphorylation with a concomitant decrease in p-T^505.

Test [4] concerns dnPKCδ/CD2rtTA mice. The test is described as follows: Serum IgG anti-dsDNA antibodies by ELISA in double transgenic mice given dox. The test is classed as in vivo, mouse. The conditions noted are these: dox in drinking water, serially over time, versus sucrose controls. Here is the method:
Serum anti-dsDNA IgG antibodies were measured by ELISA. Microtiter plates (Costar, Corning, N.Y.) were coated overnight at 4° C. with 10 μg plasmid dsDNA, then 5 μL of mouse sera were added to each well in 100 μl of buffer and incubated overnight at 4° C. Bound anti-dsDNA antibody was detected by chemiluminescence using HRP-goat anti-mouse IgG (Bethyl Lab Inc) at 450 nm in a spectrophotometer equipped with Softmax Pro software (Molecular Devices, Sunnyvale, Calif.). Murine monoclonal anti-dsDNA antibody (Chemicon) was used for the standard curve.
Experiments were conducted during the development of embodiments of the present invention to determine if the double transgenic develop anti-dsDNA antibodies when given dox. The double transgenic mice were given sucrose or sucrose plus dox in their drinking water, and IgG anti-dsDNA antibodies were measured serially over time by ELISA.
Background: ELISA stands for enzyme-linked immunosorbent assay.

The next test relates to CD70. The test is described as follows: CD70 mRNA in CD3+ T cells of dnPKCδ/CD2-rtTA mice with and without dox. The test is classed as in vivo, mouse. To be noted: dox 2 weeks, relative to controls. As to the method: (§3) Double transgenic mice were generated and maintained in a specific pathogen-free environment. All protocols were approved by the University of Michigan Committee on the Use and Care of Animals (UCUCA). Pups were weaned at 20 days of age and genotyped for the presence of both genes by PCR. Transgene expression was induced by giving 2 mg/ml of dox in the drinking water and supplemented with 5% of sucrose. Double transgenic control animals were given 5% sucrose alone. All the double transgenic mice were developmentally normal. Protein and blood in mouse urine was measured using Chemstrip 6 dipsticks (Roche, Madison, Wis.).
(§4) 150 ng of RNA was converted to cDNA and amplified in one step using a Quanti-Tect SYBR Green RT-PCR kit (Qiagen). CD70 transcripts were quantitated by real-time RT-PCR using a Rotor-Gene 3000 (Corbett Research, Sydney, Australia) and previously published protocols (Gorelik, 2007; herein incorporated by reference in its entirety). The amplification conditions were: 30 min at 50° C., 15 min at 95° C., 40 cycles of 15s at 94° C., 20s at 56° C. and 30s at 72° C. followed by a final extension at 72° for 5 min. Transcript expression levels were normalized to GAPDH. […]

Test [5] deals with ERK. The test is described as follows: ERK phosphorylation in CD3+ splenic T cells of dnPKCδ/CD2-rtTA mice receiving dox. The test is classed as in vivo, mouse. To be noted: dox in drinking water two weeks, relative to sucrose controls. As to the method:
as §3
20 μg of protein was diluted in Laemmli loading buffer and denatured by boiling for 5 min followed by electrophoresis in 10-12% SDS-polyacrylamide gels. The fractionated proteins were then electrophoretically transferred to nitrocellulose membranes (Schleicher and Schuell, Keene, N.H.) and stained with Ponceau S (Sigma) to verify equal loading. Membranes were blocked for 1 h in Tris-buffered saline (TBS) containing 0.1% Tween (Sigma) and 5% nonfat dry milk (Bio-Rad). […] For quantitative studies, the bands on X-ray films were scanned and analyzed with ImageQuant 5.2 software (Amersham). […]

For the next test, the system named is Dnmt1. Put plainly: Dnmt1 mRNA by real time RT-PCR in spleens of double transgenic mice given dox. The conditions noted are these: dox plus sucrose 2 weeks, spleen RNA. In kind it is in vivo, mouse. As to the method:
as §3, §4
Double transgenic mice were given dox plus sucrose or sucrose alone for 2 weeks. The mice were then sacrificed, RNA isolated from their spleens, then Dnmt1 mRNA levels were measured by real time RT-PCR. […]
(In general: Quantitative PCR measures a nucleic acid by following its amplification.)

In test [6] the test system is dnPKCδ/CD2rtTA mice. The test is described as follows: Kidney histopathology in double transgenic dnPKCδ/CD2rtTA mice given Doxy. To be noted: double transgenic dnPKCδ/CD2rtTA mice pretreated with Doxy. In kind it is in vivo, mouse. As to the method: Double transgenic dnPKCδ/CD2rtTA mice were given 4 mg/ml dox/5% sucrose in their drinking water for 20 wks. Double transgenic animals treated with 5% sucrose were used as controls. At indicated times, their kidneys and lungs were removed. Kidneys were divided in two, one half embedded in O.C.T. (Thermo Fisher) and frozen in liquid nitrogen while the other half and the lung were fixed in 10% formalin, paraffin embedded and stained with hematoxylin and eosin. Five micron sections were cut from the frozen tissue and fixed for 10 minutes in ice cold acetone. 10% horse serum/PBS was used to block non-specific sites and the sections were stained with a 1:50 dilution of biotin-Goat anti-mouse IgG (Fc specific) antibody (US Biologicals)/FITC-Streptavidin (BD Pharmingen) to detect IgG depositions.
Immunohistochemical staining noted IgG deposition along capillary walls and in the mesangial region of glomeruli from transgenic animals pretreated with Doxy (FIG. 11). It was also observed perivascular infiltration of leukocytes in glomeruli (FIG. 12), lungs (FIG. 13) and liver of transgenic animals pretreated with Doxy.

Where [7] appears, read: PMA stimulation, untreated (0 μM ONOO−) CD4+ T cells.

Structures are written as SMILES.

T2 sequence (Q05655 whole entry): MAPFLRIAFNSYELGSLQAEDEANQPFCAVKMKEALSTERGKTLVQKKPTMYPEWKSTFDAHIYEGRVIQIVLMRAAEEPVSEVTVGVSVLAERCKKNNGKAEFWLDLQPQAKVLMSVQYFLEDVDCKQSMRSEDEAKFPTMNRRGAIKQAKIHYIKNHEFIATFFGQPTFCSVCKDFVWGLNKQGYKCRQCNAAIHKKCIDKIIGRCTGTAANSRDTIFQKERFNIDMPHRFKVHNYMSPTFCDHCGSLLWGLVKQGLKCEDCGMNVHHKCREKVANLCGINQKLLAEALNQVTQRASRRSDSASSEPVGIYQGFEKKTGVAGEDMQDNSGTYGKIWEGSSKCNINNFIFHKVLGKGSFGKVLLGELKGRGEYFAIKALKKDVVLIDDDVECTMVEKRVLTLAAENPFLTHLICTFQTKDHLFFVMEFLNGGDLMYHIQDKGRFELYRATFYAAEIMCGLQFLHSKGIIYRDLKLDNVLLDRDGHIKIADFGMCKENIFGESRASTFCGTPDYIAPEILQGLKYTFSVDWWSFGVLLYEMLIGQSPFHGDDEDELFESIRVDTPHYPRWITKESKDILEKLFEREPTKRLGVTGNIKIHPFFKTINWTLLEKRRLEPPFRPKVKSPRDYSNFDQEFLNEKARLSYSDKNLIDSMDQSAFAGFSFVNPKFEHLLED
T1 sequence (Q04759 whole entry): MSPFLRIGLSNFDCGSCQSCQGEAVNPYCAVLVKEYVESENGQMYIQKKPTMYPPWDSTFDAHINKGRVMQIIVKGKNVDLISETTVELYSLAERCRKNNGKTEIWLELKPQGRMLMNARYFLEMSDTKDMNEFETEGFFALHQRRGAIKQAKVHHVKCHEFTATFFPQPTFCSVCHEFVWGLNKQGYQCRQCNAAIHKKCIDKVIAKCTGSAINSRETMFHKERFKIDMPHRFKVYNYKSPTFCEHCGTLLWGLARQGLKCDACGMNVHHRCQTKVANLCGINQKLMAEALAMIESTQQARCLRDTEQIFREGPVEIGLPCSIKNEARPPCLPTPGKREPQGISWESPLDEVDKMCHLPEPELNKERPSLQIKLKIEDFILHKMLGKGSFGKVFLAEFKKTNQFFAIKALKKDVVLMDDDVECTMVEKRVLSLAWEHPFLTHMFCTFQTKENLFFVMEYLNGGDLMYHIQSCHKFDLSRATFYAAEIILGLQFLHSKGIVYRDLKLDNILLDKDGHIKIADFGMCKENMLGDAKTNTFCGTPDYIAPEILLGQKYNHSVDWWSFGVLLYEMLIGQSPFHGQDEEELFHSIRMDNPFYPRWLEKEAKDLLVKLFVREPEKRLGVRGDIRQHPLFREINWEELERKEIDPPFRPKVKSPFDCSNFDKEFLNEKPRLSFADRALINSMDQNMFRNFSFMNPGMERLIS

Turning to `O=NOO` [ONOO^−, peroxynitrite], the “PKC θ activation loop phosphorylation” value on PKCθ is “not appreciably affected”. For the same compound, the “nitrated PKCδ fraction T505 phosphorylated after PMA stimulation” value at PKCδ [1] was 6%. On PKCδ [1] (PMA stimulated), this compound registered a PKCδ nitrated of 74%. Moreover, in the test on ERK [2], the “PMA-stimulated ERK phosphorylation” value is reported as “declines”. In addition, the “PKC α activation loop phosphorylation” value in the test on PKCα is “not appreciably affected”. The 3-nitrotyrosine derivative formation result in the test with 3-nitrotyrosine proteins is given as “concentration-dependent increase”. The “PKCδ T505 phosphorylation” value on PKCδ [3] (CD4+ T cells from healthy subjects, increasing ONOO− (20-80 μM, 15 min) then PMA) is recorded as “concentration dependent decrease”. At PKCδ [3] (PMA stimulated CD4+ T cells, increasing ONOO−), the “PKCδ Y311 phosphorylation” value is on record as “concentration-dependent increase”.
Consider `C[C@H]1c2cccc(O)c2C(O)=C2C(=O)[C@]3(O)C(O)=C(C(N)=O)C(=O)[C@@H](N(C)C)[C@@H]3[C@@H](O)[C@@H]21` [dox, doxycycline], for which the “IgG anti-dsDNA antibodies” value in the test with dnPKCδ/CD2rtTA mice [4] is given as “significantly higher levels”. Moreover, the “CD70 mRNA expression” value with CD70 is on record as “significantly increased”. The “ERK phosphorylation following PMA stimulation” value with ERK [5] was “Reduced”. Besides, in the test on Dnmt1, the “decrease in Dnmt1 transcripts” value was “approximately 45%”. For the same compound, the kidney histology result with dnPKCδ/CD2rtTA mice [6] is reported as “evidence of glomerulonephritis”.
With `CCCCCCCCCCCCCC(=O)O[C@@H]1[C@@H](C)[C@@]2(O)[C@@H](C=C(CO)C[C@]3(O)C(=O)C(C)=C[C@@H]23)[C@@H]2C(C)(C)[C@]12OC(C)=O` [PMA], on PKCδ [3] (setting [7]), the “PKCδ T505 phosphorylation” value is reported as “substantial increase” and the “PKCδ Y311 phosphorylation” value was “no appreciable effect”.
